B1: ICM-forming enzyme: enzyme from Bacillus circulans AM7 (FERM BP-10111) forming ICM from α-1,4 glucans; amino acid sequence SEQ ID NO:2 (protein)
chain: ASIGTVTENDTIYQIMVDRFNDGDSSNNATGAAIRYGENSEEDFRYMKGGDWQGVIDKLPYIHNMGYTAIWISPVAEPQMTNRENNGTGKNTAYHGYNVKDPNKANPYFGTKEKLKELVDSAHALGIKVIIDVVPNHIGDYMLGTQAFYDIPSLQPAAPFNNPAWYHHNGDINWSLADGRYDQWAQDYLENHDLGGLDDIDFDVPAAKQAIFSSIKGWFDYTGADGARVDAAKLMKPTDIGELQNLLGVNTFGENFDGNAEFVSRWVGTNKEWGMLDFPLFFSVLNSFAYGQSFDANIKGTLAQDSYYGGNANHMVTFIDNHDRNRFLTEAGGSVEKLQNALSFIFTVRGTPVVFQGTEQNKGNGNGQIMTGGIADTWNRWSMVKRDANGNVLENYFNENASTFKHVAKLNEIRKNNPALRTGTQREMWSAQNLYAFSRRIDTGTNVGQEVISAFSNASGGSQTVTLPLRAESTLTAGTVLVNQLNPSDTVTVQAGGVTGKQITVTLGANSAKIYAKTQPVTDTQAPSVPGNVTATVQNASSALVSWSASTDNVGVTGYEIYRNGVKIGTSATTSFTDNGLVGSTNYSYTVKAYDAAMNLSAFSAAALIVTPAGNSVTIYYKQGYTNPYIHYRPVGGTWTTSPGVAIPAAEVAGYNKITINIGAATQLEACFNNGSGIWDSNGGSNYLFGTGTWTYTPTGNIQAGGPVTPTASPTATPTVAPTATPTVTPTPTPTATPTVAPTATPTVAPTATPVPTATPAGNTATIYYKNTAFSNSYIHYKLDGATTWTTSPGVPMQASTFSGYKSITIPLGTATGLTAAFNNGSGTWDSNGGNNYHFGTGSSSLVGGSLTTGEPQADSVTFRVSVPGSTPANAPVYLTGSFNSWNAADTAYLLTRGSDGVYSVTLNLPAGTAVTYKLTRGSWATVETTSSGADITNRTLTPAGGAQTVTISVQRWKDQ
modifications: Bacillus circulans

System: not listed separately
Experiment: Optimum temperature and pH for the enzyme reaction
Type: biochemical, Bacillus circulans AM7
Settings: enzyme purified from Bacillus circulans AM7; 30° C. for 30 min
Experimental: The enzyme activity of ICM-forming enzyme of the present invention can be assayed as follows: A substrate solution is prepared by dissolving amylose in 50 mM acetate buffer (pH 6.0) containing 1 mM CaCl2 to give a concentration of 1.25% (w/v). 0.2 ml of an enzyme solution is added to 0.8 ml of the substrate solution, and the mixture solution is incubated at 30° C. for 30 mm. After stopping the reaction by heating at about 100° C. for 10 min, the reaction mixture is admixed with 4,000 units/g-solid of α-glucosidase and 250 units/g-solid of glucoamylase to hydrolyze the remaining soluble starch and concomitant oligosaccharides, and followed by the enzyme treatment at 50° C. for one hour. The amount of ICG5 contained in the treated mixture is determined by HPLC described later in Experiment 1. One unit activity of ICM-forming enzyme is defined as the amount of enzyme which forms one μmole of ICG5 per minute under the above conditions.
The results are in FIG. 9 (Optimum temperature) and FIG. 10 (Optimum pH), respectively.
In the case of B1, the “Optimum pH” value is reported as 4.5 to 8.0.

Same assay, conditions: enzyme purified from Bacillus circulans AM7; pH 6.0 for 30 min
In the case of B1, the Optimum temperature is reported as 50 to 55 °C.

Same assay, conditions: recombinant enzyme from transformant ETAM1; 30° C. for 30 min
In the case of B1, the “Optimum pH” value is reported as 4.5 to 8.0.

Same assay, conditions: recombinant enzyme from transformant ETAM1; pH 6.0 for 30 min
Work on B1 yielded an Optimum temperature of 50 to 55 °C.

System: not listed separately
Experiment: Reducing power by the Somogyi-Nelson method
Type: physicochemical
Settings: not given
From the text: It was concluded that Saccharides I and II were substantially non-reducing saccharides.
In the case of `OCC1OC2OC3C(CO)OC(OC4C(CO)OC(OC5C(CO)OC(OC6C(CO)OC(OCC7OC(OC1C(O)C2O)C(O)C(O)C7O)C(O)C6O)C(O)C5O)C(O)C4O)C(O)C3O` [ICG6, cyclo{→6)-α-D-glucopyranosyl-(1→4)-α-D-glucopyranosyl-(1→4)-α-D-glucopyranosyl-(1→4)-α-D-glucopyranosyl-(1→4)-α-D-glucopyranosyl-(1→4)-α-D-glucopyranosyl-(1→}], the Reducing power is reported as “less than the measurable limit”.

System: ICM-forming enzyme
Experiment: Effects of metal ions on the enzyme activity
Type: biochemical, Bacillus circulans AM7
Settings: not given
For `[Cl-].[Cl-].[Co+2]` [CoCl2], the Relative activity was 100%.

Same assay, conditions: 1 mM metal salt
With `[Cl][Cu][Cl]` [CuCl2] the “Inhibition of ICM-forming enzyme activity” value (shortened to “Inhibition”) was “about 20%”.
In the case of `O=C(O)CN(CCN(CC(=O)O)CC(=O)O)CC(=O)O` [EDTA], the “Inhibition” value is reported as “inhibited slightly”.
For `[Cl][Fe]([Cl])[Cl]` [FeCl3], the “Inhibition” value was “about 20%”.
For `[Cl][Hg][Cl]` [HgCl2], the “Inhibition” value was 45%.

Same assay, conditions: 1 mM metal salt; None = 100
In the case of `[Cl][Al]([Cl])[Cl]` [AlCl3], the Relative activity is reported as 106%.
`[Ba+2].[Cl-].[Cl-]` [BaCl2] gave a Relative activity of 99%.
With `[Ca+2].[Cl-].[Cl-]` [CaCl2] the Relative activity was 105%.
Work on `[Cl][Cu][Cl]` [CuCl2] yielded a Relative activity of 79%.
`O=C(O)CN(CCN(CC(=O)O)CC(=O)O)CC(=O)O` [EDTA] gave a Relative activity of 86%.
With `[Cl][Fe][Cl]` [FeCl2] the Relative activity was 94%.
In the case of `[Cl][Fe]([Cl])[Cl]` [FeCl3], the Relative activity is reported as 82%.
Molecule `[Cl][Hg][Cl]` [HgCl2] has a Relative activity of 55%.
With `[Cl-].[Cl-].[Mg+2]` [MgCl2] the Relative activity was 110%.
In the case of `[Cl][Mn][Cl]` [MnCl2], the Relative activity is reported as 108%.
Molecule `[Cl][Ni][Cl]` [NiCl2] has a Relative activity of 105%.
Work on `[Cl][Pb][Cl]` [PbCl2] yielded a Relative activity of 130%.
Work on `[Cl-].[Cl-].[Sr+2]` [SrCl2] yielded a Relative activity of 100%.
In the case of `[Cl-].[Cl-].[Zn+2]` [ZnCl2], the Relative activity is reported as 113%.

System: ICM-forming enzyme
Experiment: Action on various saccharides (substrate specificity, TLC)
Type: biochemical, Bacillus circulans AM7
Parameters: key: −: Not changed; +: Spot of substrate is slightly decreased and the formation of ICM are detected; ++: Spot of substrate is markedly decreased and the formation of ICM are detected; +++: Spot of substrate is virtually disappeared and the formation of ICM are detected
Settings: substrate 2% (w/v), one unit/g-substrate enzyme, 40° C., pH 6.0, 24 hours
Experimental: Substrate specificity of ICM-forming enzyme was investigated using various saccharides as substrates. Substrate solutions were prepared by dissolving maltose, maltotriose, maltotetraose, maltopentaose, maltohexaose, maltoheptaose, neotrehalose, trehalose, kojibiose, nigerose, isomaltose, isomaltotriose, panose, isopanose, maltitol, maltotriitol, α-, β-, or γ-cyclodextrin, amylose, soluble starch, glycogen, pullulan or dextran in water. Each substrate solution was admixed with acetate buffer (pH 6.0) and CaCl2 to give final concentrations of 20 mM and 1 mM, respectively. […] Substrate concentration was set to 2% (w/v) and followed by the enzyme reaction at 40° C. and pH 6.0 for 24 hours. To examine the saccharides in each mixture before and after the reaction, saccharides were separated by silica gel thin-layer chromatography (hereinafter, simply abbreviated as “TLC”) using “KIESELGEL 60”, a TLC aluminum plate (10×20 cm) and a solvent (n-butanol/pyridine/water, volume ratio of 6:4:1) and two-times ascending method. The separated saccharides on the plate were detected by visualizing the spots with sulfate-methanol method. By the above TLC analyses, the enzymatic action and the degree of the reaction of ICM-forming enzyme on each substrate were confirmed.
For `OC[C@H]1O[C@H](O[C@H]2[C@H](O)[C@@H](O)C(O)O[C@@H]2CO)[C@H](O)[C@@H](O)[C@@H]1O` (mixture of isomers) [Maltose, maltose], the Action was “−”.
With `OC[C@H]1O[C@H](OC[C@H]2OC(O)[C@H](O)[C@@H](O)[C@@H]2O)[C@H](O)[C@@H](O)[C@@H]1O` (stereo partly drawn) [Isomaltose, isomaltose] the Action was “−”.
In the case of `OC[C@H]1O[C@H](OC[C@H]2O[C@H](OC[C@H]3OC(O)[C@H](O)[C@@H](O)[C@@H]3O)[C@H](O)[C@@H](O)[C@@H]2O)[C@H](O)[C@@H](O)[C@@H]1O` (stereo partly drawn) [Isomaltotriose, isomaltotriose], the Action is reported as “−”.
For `OC[C@H]1O[C@H](O[C@H]2[C@H](O)[C@@H](O)[C@@H](OC[C@H]3OC(O)[C@H](O)[C@@H](O)[C@@H]3O)O[C@@H]2CO)[C@H](O)[C@@H](O)[C@@H]1O` (stereo partly drawn) [Isopanose, isopanose], the Action was “−”.
For `OC[C@H]1O[C@H](O[C@H]2C(O)O[C@H](CO)[C@@H](O)[C@@H]2O)[C@H](O)[C@@H](O)[C@@H]1O` (stereo partly drawn) [Kojibiose, kojibiose], the Action was “−”.
In the case of `OC[C@@H](O)[C@@H](O[C@H]1O[C@H](CO)[C@@H](O)[C@H](O)[C@H]1O)[C@H](O)[C@@H](O)CO` [Maltitol, maltitol], the Action is reported as “−”.
With `OC[C@H]1O[C@H](O[C@H]2[C@H](O)[C@@H](O)[C@@H](O[C@H]3[C@H](O)[C@@H](O)[C@@H](O[C@H]4[C@H](O)[C@@H](O)C(O)O[C@@H]4CO)O[C@@H]3CO)O[C@@H]2CO)[C@H](O)[C@@H](O)[C@@H]1O` (stereo partly drawn) [Maltotetraose, maltotetraose] the Action was “++”.
With `OC[C@@H](O)[C@@H](O[C@H]1O[C@H](CO)[C@@H](O[C@H]2O[C@H](CO)[C@@H](O)[C@H](O)[C@H]2O)[C@H](O)[C@H]1O)[C@H](O)[C@@H](O)CO` [Maltotriitol, maltotriitol] the Action was “−”.
With `OC[C@H]1O[C@@H](O[C@H]2O[C@H](CO)[C@@H](O)[C@H](O)[C@H]2O)[C@H](O)[C@@H](O)[C@@H]1O` [Neotrehalose, neotrehalose] the Action was “−”.
With `OC[C@H]1O[C@H](O[C@H]2[C@H](O)[C@@H](CO)OC(O)[C@@H]2O)[C@H](O)[C@@H](O)[C@@H]1O` (stereo partly drawn) [Nigerose, nigerose] the Action was “−”.
For `OC[C@H]1O[C@H](OC[C@H]2O[C@H](O[C@H]3[C@H](O)[C@@H](O)C(O)O[C@@H]3CO)[C@H](O)[C@@H](O)[C@@H]2O)[C@H](O)[C@@H](O)[C@@H]1O` (stereo partly drawn) [Panose, panose], the Action was “−”.
With `OC[C@H]1O[C@H](O[C@H]2O[C@H](CO)[C@@H](O)[C@H](O)[C@H]2O)[C@H](O)[C@@H](O)[C@@H]1O` [Trehalose, trehalose] the Action was “−”.
For amylose, the Action was “+++”.
For dextran, the Action was “−”.
With glycogen the Action was “+”.
In the case of maltoheptaose, the Action is reported as “+++”.
In the case of maltohexaose, the Action is reported as “+++”.
For maltopentaose, the Action was “+++”.
In the case of maltotriose, the Action is reported as “+”.
In the case of pullulan, the Action is reported as “−”.
With soluble starch the Action was “++”.

Reference: US8633005B2, “Isocyclomaltooligosaccharide(s), isocyclomaltooligosaccharide-forming enzyme, their preparation and uses” (Hayashibara Co., Ltd., priority 2004, dated 2014)
